{"source": "patent US20040067531A1", "about": "“Methods of modulating protein tyrosine kinase function with substituted indolinone compounds” (SUGEN, INC., priority 1997, published 2004)", "key": {"[1]": {"biological_target": "PDGF receptor (Homo sapiens, UniProt P09619)", "sequence (P09619 33-1106)": "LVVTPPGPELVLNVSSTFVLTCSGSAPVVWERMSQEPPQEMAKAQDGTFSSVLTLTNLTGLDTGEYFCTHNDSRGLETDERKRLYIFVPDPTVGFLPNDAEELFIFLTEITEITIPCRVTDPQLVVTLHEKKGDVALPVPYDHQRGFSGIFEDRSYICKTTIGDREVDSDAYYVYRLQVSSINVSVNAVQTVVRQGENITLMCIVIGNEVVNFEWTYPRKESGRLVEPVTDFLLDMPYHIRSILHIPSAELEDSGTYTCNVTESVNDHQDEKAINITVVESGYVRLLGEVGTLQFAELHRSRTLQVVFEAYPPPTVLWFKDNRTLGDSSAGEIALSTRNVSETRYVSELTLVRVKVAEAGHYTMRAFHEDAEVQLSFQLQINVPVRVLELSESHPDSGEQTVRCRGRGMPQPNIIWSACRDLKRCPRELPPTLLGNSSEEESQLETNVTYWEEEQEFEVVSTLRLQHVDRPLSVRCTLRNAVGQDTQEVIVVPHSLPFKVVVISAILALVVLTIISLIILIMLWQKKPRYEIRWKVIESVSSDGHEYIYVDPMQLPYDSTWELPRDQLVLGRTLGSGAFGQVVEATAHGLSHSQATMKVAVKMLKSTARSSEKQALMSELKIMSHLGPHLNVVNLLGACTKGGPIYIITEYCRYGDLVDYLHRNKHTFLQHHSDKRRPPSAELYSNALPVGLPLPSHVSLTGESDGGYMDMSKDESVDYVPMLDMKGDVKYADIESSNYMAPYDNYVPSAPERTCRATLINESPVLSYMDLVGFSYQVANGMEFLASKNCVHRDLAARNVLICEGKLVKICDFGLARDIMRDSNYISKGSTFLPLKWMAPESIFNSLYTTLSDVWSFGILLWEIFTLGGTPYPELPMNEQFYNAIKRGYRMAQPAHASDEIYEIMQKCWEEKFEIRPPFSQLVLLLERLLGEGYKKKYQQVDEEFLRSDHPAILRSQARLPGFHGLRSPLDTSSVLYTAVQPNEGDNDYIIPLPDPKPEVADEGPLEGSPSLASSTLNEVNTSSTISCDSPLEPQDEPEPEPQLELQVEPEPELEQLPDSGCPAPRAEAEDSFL", "assay": "ELISA assay measuring the kinase activity of the PDGF receptor in U1242 cells", "format": "cell-based", "settings": "ligand stimulation, phosphotyrosine ELISA", "protocol": "All cell culture media, glutanine, and fetal bovine serum were purchased from Gibco Life Technologies (Grand Island, N.Y.) unless otherwise specified. All cells were grown in a humid atmosphere of 90-95% air and 5-10% CO2 at 37° C. All cell lines were routinely subcultured twice a week and were negative for mycoplasma as determined by the Mycotect method (Gibco).\nFor ELISA assays, cells (U1242, obtained from Joseph Schlessinger, NYU) were grown to 80-90% confluency in growth medium (MEM with 10% FBS, NEAA, 1 mM NaPyr and 2 mM GLN) and seeded in 96-well tissue culture plates in 0.5% serum at 25,000 to 30,000 cells per well. After overnight incubation in 0.5% serum-containing medium cells were changed to serum-free medium and treated with test compound for 2 hr in a 5% CO21 37° C. incubator. […] Absorbance at 410 nm with a reference wavelength of 630 nm was recorded about 15 to 30 min after ABTS addition.\nThe IC50 values were measured for several of the compounds of the invention."}, "[2]": {"biological_target": "Myc-GyrB-FGFR fusion protein (Homo sapiens, UniProt P11362)", "sequence (P11362 398-822)": "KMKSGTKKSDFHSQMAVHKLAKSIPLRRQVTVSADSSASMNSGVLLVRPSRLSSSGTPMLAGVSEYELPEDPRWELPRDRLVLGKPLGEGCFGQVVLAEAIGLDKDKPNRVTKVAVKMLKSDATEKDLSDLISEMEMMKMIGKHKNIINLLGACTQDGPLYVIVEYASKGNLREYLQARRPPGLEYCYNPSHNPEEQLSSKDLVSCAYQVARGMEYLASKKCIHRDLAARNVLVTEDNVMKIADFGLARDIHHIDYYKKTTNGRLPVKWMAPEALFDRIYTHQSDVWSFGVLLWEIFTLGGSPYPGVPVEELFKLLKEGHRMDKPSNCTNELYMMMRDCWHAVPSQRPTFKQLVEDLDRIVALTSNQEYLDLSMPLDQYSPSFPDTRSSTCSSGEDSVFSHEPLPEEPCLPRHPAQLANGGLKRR", "assay": "ELISA assay measuring the kinase activity of the FGF receptor (Myc-GyrB-FGFR from COS/FGFR cell lysate)", "format": "biochemical", "settings": "7 μM ATP", "procedure": "The following protocol describes the reagents and procedures used to analyze protein-tyrosine kinase activity of the Myc-GyrB-FGFR fusion protein.\nAll of the following steps are conducted at room temperature unless it is specifically indicated. All ELISA plate washing is by rinsing 4× with TBST.\nCoat Corning 96 well ELISA plates with 1.0 μg/well of Rabbit αGyrB antibody in PBS for a total well volume of 100 μL. Store overnight at 4° C.\nRemove unbound Rabbit antibody by inverting plate to remove liquid. Pat plate on a paper towel to remove excess liquid and bubbles\nAdd 100 μL of Blocking Buffer (TBB) to each well. Incubate while shaking on a microliter plate shaker at room temperature for 30 min.\nWash 4× with TBST. Pat plate on a paper towel to remove excess liquid and bubbles.\nAdd 15 μg COS/FGFR cell lysate Myc-GyrB-FGFR sources per well in HNTG for a final volume of 100 μL per well. Incubate while shaking on a micro-liter plate shaker at room temperature for 2 hours.\nWash 4× with TBST as described in step 4.\nAdd 80 μL of 1× kinase buffer per well.\nDilute compunds/extracts 1:10 (or as stated otherwise) in 1× kinase buffer +1% DMSO in a polypropylene 96 well plate.\nAt this point diluted Compounds/Extracts are added to the ELISA plate. […]\nRead assay on Dynatech MR7000 ELISA Plate Reader."}}, "data": [{"compound": "O=C(O)CCc1c(C=C2C(=O)Nc3ccc(Cl)cc32)[nH]c2c1CCCC2", "note": "[IN-002, 3-[2-(5-Chloro-2-oxo-1,2-dihydro-indol-3-ylidenemethyl)-4,5.6,7-tetrahydro-1H-indol-3-yl]-propionic acid]", "values": [{"measurement": "IC50", "setting": "[1]", "result": 50, "unit": "nM"}, {"measurement": "IC50", "setting": "[2]", "result": 370, "unit": "nM"}]}]}
